Laboratory results reported in publication PMC5218480 (PLoS ONE, 2017).

Tested on: MV-4-11 cells
Test: Gene expression microarray analysis (Affymetrix PrimeView) and GSEA
Type: cell-based, human
Design: RFU PODN (11730768_x_at) / Fold change /veh PODN (11730768_x_at) / RFU LINC00158 (11744669_a_at) / Fold change /veh LINC00158 (11744669_a_at) / RFU DUSP10 (11751237_a_at) / Fold change /veh DUSP10 (11751237_a_at) / RFU ID3 (11757404_x_at) / Fold change /veh ID3 (11757404_x_at) / RFU PLEKHG5 (11737974_s_at) / Fold change /veh PLEKHG5 (11737974_s_at) / RFU LRRC4B (11730491_at) / Fold change /veh LRRC4B (11730491_at) / RFU GIMAP4 (11747438_a_at) / Fold change /veh GIMAP4 (11747438_a_at) / RFU KRT8 (11758183_x_at) / Fold change /veh KRT8 (11758183_x_at) / RFU CNN1 (11734310_a_at) / Fold change /veh CNN1 (11734310_a_at) / RFU VPS37D (11726825_at) / Fold change /veh VPS37D (11726825_at) / RFU C10orf10 (11716522_x_at) / Fold change /veh C10orf10 (11716522_x_at) / RFU KIR2DL2 /// KIR2DL4 /// KIR2DL5A /// KIR2DL5B /// KIR2DS1 /// KIR2DS2 /// KIR2DS3 /// KIR2DS4 /// KIR3DL3 /// KIR3DL3 /// KIR3DS1 (11738374_at) / Fold change /veh KIR2DL2 /// KIR2DL4 /// KIR2DL5A /// KIR2DL5B /// KIR2DS1 /// KIR2DS2 /// KIR2DS3 /// KIR2DS4 /// KIR3DL3 /// KIR3DL3 /// KIR3DS1 (11738374_at) / RFU C1QL1 (11718748_at) / Fold change /veh C1QL1 (11718748_at) / RFU TMPRSS4 (11747572_a_at) / Fold change /veh TMPRSS4 (11747572_a_at) / RFU HAMP (11756126_x_at) / Fold change /veh HAMP (11756126_x_at) / RFU RNFT2 (11725882_a_at) / Fold change /veh RNFT2 (11725882_a_at) / RFU NR4A2 (11747474_a_at) / Fold change /veh NR4A2 (11747474_a_at) / RFU ABCC12 (11746883_a_at) / Fold change /veh ABCC12 (11746883_a_at) / RFU TMEM136 (11760407_x_at) / Fold change /veh TMEM136 (11760407_x_at) / RFU CLDN22 /// WWC2 (11732394_at) / Fold change /veh CLDN22 /// WWC2 (11732394_at) / RFU HLA-DPB1 (11760878_x_at) / Fold change /veh HLA-DPB1 (11760878_x_at) / RFU SPINT1 (11716480_a_at) / Fold change /veh SPINT1 (11716480_a_at) / RFU GAP43 (11754022_s_at) / Fold change /veh GAP43 (11754022_s_at) / RFU A4GNT (11735810_at) / Fold change /veh A4GNT (11735810_at) / RFU PRB3 (11715151_x_at) / Fold change /veh PRB3 (11715151_x_at) / RFU TUBB4B (11761932_at) / Fold change /veh TUBB4B (11761932_at) / RFU CAPN14 (11732068_a_at) / Fold change /veh CAPN14 (11732068_a_at) / RFU TMCC2 (11721928_a_at) / Fold change /veh TMCC2 (11721928_a_at) / RFU IRGQ (11745062_a_at) / Fold change /veh IRGQ (11745062_a_at) / RFU FAM174B (11720279_a_at) / Fold change /veh FAM174B (11720279_a_at) / RFU TMPRSS4 (11748680_a_at) / Fold change /veh TMPRSS4 (11748680_a_at) / RFU FAM212B (11763350_a_at) / Fold change /veh FAM212B (11763350_a_at) / RFU PLEKHG5 (11743358_a_at) / Fold change /veh PLEKHG5 (11743358_a_at) / RFU ZSCAN30 (11745921_a_at) / Fold change /veh ZSCAN30 (11745921_a_at) / RFU CMKLR1 (11741424_a_at) / Fold change /veh CMKLR1 (11741424_a_at) / RFU LOC101060620 /// MAPK8IP1 (11723275_at) / Fold change /veh LOC101060620 /// MAPK8IP1 (11723275_at) / RFU SPTSSB (11747773_x_at) / Fold change /veh SPTSSB (11747773_x_at) / RFU PRSS12 (11739890_at) / Fold change /veh PRSS12 (11739890_at) / RFU BIN1 (11741810_x_at) / Fold change /veh BIN1 (11741810_x_at) / RFU WNT11 (11732464_a_at) / Fold change /veh WNT11 (11732464_a_at) / RFU C10orf10 (11716521_a_at) / Fold change /veh C10orf10 (11716521_a_at) / RFU C5orf56 (11738089_at) / Fold change /veh C5orf56 (11738089_at) / RFU CYB561 (11721691_x_at) / Fold change /veh CYB561 (11721691_x_at) / RFU ANKRD19P (11752326_a_at) / Fold change /veh ANKRD19P (11752326_a_at) / RFU OR2T12 /// OR2T33 /// OR2T8 (11738714_s_at) / Fold change /veh OR2T12 /// OR2T33 /// OR2T8 (11738714_s_at) / RFU VCAN (11748164_a_at) / Fold change /veh VCAN (11748164_a_at) / RFU JSRP1 (11732532_at) / Fold change /veh JSRP1 (11732532_at) / RFU KRTAP10-11 (11738290_x_at) / Fold change /veh KRTAP10-11 (11738290_x_at) / RFU MYO3A (11730013_a_at) / Fold change /veh MYO3A (11730013_a_at) / RFU EBF3 (11725865_a_at) / Fold change /veh EBF3 (11725865_a_at) / RFU CAMK2N1 (11719241_x_at) / Fold change /veh CAMK2N1 (11719241_x_at) / RFU C5orf56 (11738088_a_at) / Fold change /veh C5orf56 (11738088_a_at) / RFU OLFML3 (11715873_a_at) / Fold change /veh OLFML3 (11715873_a_at) / RFU LOC100653217 /// NTM (11731650_a_at) / Fold change /veh LOC100653217 /// NTM (11731650_a_at) / RFU MAPK11 (11762145_a_at) / Fold change /veh MAPK11 (11762145_a_at) / RFU FIZ1 (11724087_x_at) / Fold change /veh FIZ1 (11724087_x_at) / RFU OASL (11726364_x_at) / Fold change /veh OASL (11726364_x_at) / RFU SOX15 (11748057_x_at) / Fold change /veh SOX15 (11748057_x_at) / RFU CD79A (11719716_a_at) / Fold change /veh CD79A (11719716_a_at) / RFU HIST1H1D (11736915_at) / Fold change /veh HIST1H1D (11736915_at) / RFU CASKIN2 (11723855_a_at) / Fold change /veh CASKIN2 (11723855_a_at) / RFU LOC730098 (11760151_x_at) / Fold change /veh LOC730098 (11760151_x_at) / RFU OR4N2 (11742367_at) / Fold change /veh OR4N2 (11742367_at) / RFU PRRT2 (11749266_a_at) / Fold change /veh PRRT2 (11749266_a_at) / RFU SNX32 (11753110_a_at) / Fold change /veh SNX32 (11753110_a_at) / RFU CDHR5 (11726645_a_at) / Fold change /veh CDHR5 (11726645_a_at) / RFU RCAN1 (11760418_a_at) / Fold change /veh RCAN1 (11760418_a_at) / RFU FAM167A (11723789_a_at) / Fold change /veh FAM167A (11723789_a_at) / RFU FAM26E (11764081_at) / Fold change /veh FAM26E (11764081_at) / RFU ISYNA1 (11749810_s_at) / Fold change /veh ISYNA1 (11749810_s_at) / RFU ACY1 (11761880_at) / Fold change /veh ACY1 (11761880_at) / RFU 11764098_at / Fold change /veh 11764098_at / RFU SAMD14 (11745864_x_at) / Fold change /veh SAMD14 (11745864_x_at) / RFU NPB (11741838_a_at) / Fold change /veh NPB (11741838_a_at) / RFU TMPRSS6 (11731388_a_at) / Fold change /veh TMPRSS6 (11731388_a_at) / RFU KRTAP10-2 (11738614_at) / Fold change /veh KRTAP10-2 (11738614_at) / RFU ARHGAP8 /// PRR5-ARHGAP8 (11727945_x_at) / Fold change /veh ARHGAP8 /// PRR5-ARHGAP8 (11727945_x_at) / RFU KRTAP5-7 /// NADSYN1 (11734609_at) / Fold change /veh KRTAP5-7 /// NADSYN1 (11734609_at) / RFU RASL12 (11751679_a_at) / Fold change /veh RASL12 (11751679_a_at) / RFU CDKN2B (11736163_a_at) / Fold change /veh CDKN2B (11736163_a_at) / RFU PRF1 (11729649_at) / Fold change /veh PRF1 (11729649_at) / RFU, ZNF638 /// ZNF638-IT1 / Fold change vs veh, ZNF638 /// ZNF638-IT1 / RFU, PANK3 / Fold change vs veh, PANK3 / RFU, SH3YL1 / Fold change vs veh, SH3YL1 / RFU, ZEB2 / Fold change vs veh, ZEB2 / RFU, NRIP1 / Fold change vs veh, NRIP1 / RFU, PTTG1IP / Fold change vs veh, PTTG1IP / RFU, CAPN2 / Fold change vs veh, CAPN2 / RFU, MED14 / Fold change vs veh, MED14 / RFU, SNORA58 / Fold change vs veh, SNORA58 / RFU, C1orf63 / Fold change vs veh, C1orf63 / RFU, LRRFIP1 / Fold change vs veh, LRRFIP1 / RFU, NDUFAF7 / Fold change vs veh, NDUFAF7 / RFU, SLC12A2 / Fold change vs veh, SLC12A2 / RFU, IBTK / Fold change vs veh, IBTK / RFU, ESF1 / Fold change vs veh, ESF1 / Fold change vs veh, TMEM50B / RFU, TAOK1 / Fold change vs veh, TAOK1 / RFU, ACBD3 / Fold change vs veh, ACBD3 / RFU, TMA16 / Fold change vs veh, TMA16 / RFU, RWDD3 / Fold change vs veh, RWDD3 / RFU, BCAT1 / Fold change vs veh, BCAT1 / RFU, EDEM3 / Fold change vs veh, EDEM3 / RFU, TMEM33 / Fold change vs veh, TMEM33 / RFU, WDR75 / Fold change vs veh, WDR75 / RFU, AHCTF1 / Fold change vs veh, AHCTF1 / RFU, TFRC / Fold change vs veh, TFRC / RFU, ZDHHC17 / Fold change vs veh, ZDHHC17 / RFU, NOM1 / Fold change vs veh, NOM1 / RFU, ARL8B / Fold change vs veh, ARL8B / RFU, ZBTB11 / Fold change vs veh, ZBTB11 / RFU, TAMM41 / Fold change vs veh, TAMM41 / RFU, KIAA1704 /// LOC100996395 / Fold change vs veh, KIAA1704 /// LOC100996395 / RFU, ING1 / Fold change vs veh, ING1 / RFU, TRMT61B / Fold change vs veh, TRMT61B / RFU, FUBP3 / Fold change vs veh, FUBP3 / RFU, TP53 / Fold change vs veh, TP53 / RFU, TNKS2 / Fold change vs veh, TNKS2 / RFU, ZFP14 / Fold change vs veh, ZFP14 / RFU, ACTR2 / Fold change vs veh, ACTR2 / RFU, PPP3R1 / Fold change vs veh, PPP3R1 / RFU, PIK3R1 / Fold change vs veh, PIK3R1 / RFU, HNRNPA1 / Fold change vs veh, HNRNPA1 / RFU, RNF170 / Fold change vs veh, RNF170 / RFU, ZNF28 / Fold change vs veh, ZNF28 / RFU, RNGTT / Fold change vs veh, RNGTT / RFU, OGT / Fold change vs veh, OGT / RFU, BRD1 / Fold change vs veh, BRD1 / RFU, MARS / Fold change vs veh, MARS / RFU, ZNF655 / Fold change vs veh, ZNF655 / RFU, FAHD1 / Fold change vs veh, FAHD1 / RFU, BDP1 / Fold change vs veh, BDP1 / RFU, LRRCC1 / Fold change vs veh, LRRCC1 / RFU, ARID1A / Fold change vs veh, ARID1A / RFU, ZNF146 / Fold change vs veh, ZNF146 / RFU, ZNF330 / Fold change vs veh, ZNF330 / RFU, GPN3 / Fold change vs veh, GPN3 / RFU, C9orf123 / Fold change vs veh, C9orf123 / RFU, N4BP2L2 / Fold change vs veh, N4BP2L2 / RFU, ARFIP1 / Fold change vs veh, ARFIP1 / RFU, FAM179B / Fold change vs veh, FAM179B / RFU, BCL10 / Fold change vs veh, BCL10 / RFU, UHRF1BP1L / Fold change vs veh, UHRF1BP1L / RFU, BET1 / Fold change vs veh, BET1 / RFU, CNOT2 / Fold change vs veh, CNOT2 / RFU, ZNF268 / Fold change vs veh, ZNF268 / Fold change vs veh, ZNF507 / RFU, DGCR2 / Fold change vs veh, DGCR2 / RFU, WDSUB1 / Fold change vs veh, WDSUB1 / Fold change vs veh, HSP90B1 /// MIR3652 / RFU, ADSS / Fold change vs veh, ADSS / RFU, GK / Fold change vs veh, GK / RFU, ZNF148 / Fold change vs veh, ZNF148 / RFU, TAF9 / Fold change vs veh, TAF9 / RFU, SLC1A5 / Fold change vs veh, SLC1A5 / RFU, SLMO2 / Fold change vs veh, SLMO2 / RFU, ABCC4 / Fold change vs veh, ABCC4 / RFU, LOC101060439 /// RAP1B / Fold change vs veh, LOC101060439 /// RAP1B / RFU, RFX7 / Fold change vs veh, RFX7 / RFU, GTPBP10 / Fold change vs veh, GTPBP10 / RFU, CNEP1R1 / Fold change vs veh, CNEP1R1 / RFU, BIVM-ERCC5 /// ERCC5 / Fold change vs veh, BIVM-ERCC5 /// ERCC5 / RFU, ILF3 / Fold change vs veh, ILF3 / RFU 11762660_at / Fold change /veh 11762660_at / RFU VCAN (11757783_s_at) / Fold change /veh VCAN (11757783_s_at) / RFU DDX43 (11728927_at) / Fold change /veh DDX43 (11728927_at) / RFU KRT8 (11758188_x_at) / Fold change /veh KRT8 (11758188_x_at) / RFU NKD1 (11759106_at) / Fold change /veh NKD1 (11759106_at) / RFU SRD5A1 (11742802_a_at) / Fold change /veh SRD5A1 (11742802_a_at) / RFU TPSAB1 /// TPSB2 (11721975_s_at) / Fold change /veh TPSAB1 /// TPSB2 (11721975_s_at) / RFU GSTM3 (11746129_a_at) / Fold change /veh GSTM3 (11746129_a_at) / RFU IL23R (11737362_x_at) / Fold change /veh IL23R (11737362_x_at) / RFU TMEM51 (11727254_a_at) / Fold change /veh TMEM51 (11727254_a_at) / RFU PIWIL2 (11732686_x_at) / Fold change /veh PIWIL2 (11732686_x_at) / RFU ORM1 (11744905_x_at) / Fold change /veh ORM1 (11744905_x_at) / RFU CCDC152 (11743942_at) / Fold change /veh CCDC152 (11743942_at) / RFU ECM1 (11717891_a_at) / Fold change /veh ECM1 (11717891_a_at) / RFU IL23R (11748794_a_at) / Fold change /veh IL23R (11748794_a_at) / RFU TNFAIP8L3 (11732012_x_at) / Fold change /veh TNFAIP8L3 (11732012_x_at) / RFU MBOAT4 (11741988_at) / Fold change /veh MBOAT4 (11741988_at) / RFU 11764193_at / Fold change /veh 11764193_at / RFU TMEM53 (11763286_at) / Fold change /veh TMEM53 (11763286_at) / RFU MAGEB2 (11727129_at) / Fold change /veh MAGEB2 (11727129_at) / RFU TMEM200A (11744735_a_at) / Fold change /veh TMEM200A (11744735_a_at) / RFU CCDC152 (11751479_a_at) / Fold change /veh CCDC152 (11751479_a_at) / RFU FAM211A (11726209_a_at) / Fold change /veh FAM211A (11726209_a_at) / RFU RGS16 (11746705_a_at) / Fold change /veh RGS16 (11746705_a_at) / RFU VCAN (11755009_s_at) / Fold change /veh VCAN (11755009_s_at) / RFU RHOB (11743442_s_at) / Fold change /veh RHOB (11743442_s_at) / RFU RGS16 (11720943_a_at) / Fold change /veh RGS16 (11720943_a_at) / RFU RGS16 (11720944_at) / Fold change /veh RGS16 (11720944_at) / RFU, VPS4B / Fold change vs veh, VPS4B / RFU, CREB1 / Fold change vs veh, CREB1 / RFU, DNAJC13 / Fold change vs veh, DNAJC13 / RFU, GNAQ / Fold change vs veh, GNAQ / RFU, CDK5R1 / Fold change vs veh, CDK5R1 / RFU, ZRANB3 / Fold change vs veh, ZRANB3 / RFU, CUL4A / Fold change vs veh, CUL4A / RFU, CCNY / Fold change vs veh, CCNY / RFU, UFL1 / Fold change vs veh, UFL1 / RFU, COG3 / Fold change vs veh, COG3 / RFU, DIAPH2 / Fold change vs veh, DIAPH2 / RFU, SKA2 / Fold change vs veh, SKA2 / RFU, AFF3 / Fold change vs veh, AFF3 / RFU, LMF1 / Fold change vs veh, LMF1 / RFU, IPO11 / Fold change vs veh, IPO11 / RFU, DFFB / Fold change vs veh, DFFB / RFU, FOXP1 / Fold change vs veh, FOXP1 / RFU, CARD8 / Fold change vs veh, CARD8 / RFU, STRN3 / Fold change vs veh, STRN3 / RFU, ADK / Fold change vs veh, ADK / RFU, RASSF2 / Fold change vs veh, RASSF2 / RFU, WIPF1 / Fold change vs veh, WIPF1 / RFU, LARP1B / Fold change vs veh, LARP1B / RFU, RASA1 / Fold change vs veh, RASA1 / RFU, RB1 / Fold change vs veh, RB1 / RFU, PPFIA1 / Fold change vs veh, PPFIA1 / RFU, MAT2A / Fold change vs veh, MAT2A / RFU, CCT5 / Fold change vs veh, CCT5 / RFU, WDR92 / Fold change vs veh, WDR92 / RFU, CUX1 / Fold change vs veh, CUX1 / RFU, TTC7A / Fold change vs veh, TTC7A / RFU, TMEM135 / Fold change vs veh, TMEM135 / RFU, DEPTOR / Fold change vs veh, DEPTOR / RFU, CPM / Fold change vs veh, CPM / RFU, DNAJB6 / Fold change vs veh, DNAJB6 / RFU, CACNA2D3 / Fold change vs veh, CACNA2D3 / RFU, DTX4 / Fold change vs veh, DTX4 / RFU, TFCP2 / Fold change vs veh, TFCP2 / RFU, GMCL1 /// GMCL1P1 / Fold change vs veh, GMCL1 /// GMCL1P1 / RFU, AEBP2 / Fold change vs veh, AEBP2 / RFU, SNHG1 /// SNORD22 /// SNORD25 /// SNORD26 /// SNORD27 /// SNORD28 /// SNORD29 /// SNORD31 / Fold change vs veh, SNHG1 /// SNORD22 /// SNORD25 /// SNORD26 /// SNORD27 /// SNORD28 /// SNORD29 /// SNORD31 / Fold change (Aza/veh), C12orf56 (ProbeSet 11735607_a_at) / Fold change (ACY-1035/veh), C12orf56 (ProbeSet 11735607_a_at) / Fold change (Aza/veh), FGFR1OP (ProbeSet 11751329_s_at) / Fold change (ACY-1035/veh), FGFR1OP (ProbeSet 11751329_s_at) / Fold change (Aza/veh), VPS36 (ProbeSet 11739960_a_at) / Fold change (ACY-1035/veh), VPS36 (ProbeSet 11739960_a_at) / RFU SYPL1 (11715823_x_at) / Fold change /veh SYPL1 (11715823_x_at) / RFU IGFBP7 (11715501_s_at) / Fold change /veh IGFBP7 (11715501_s_at) / RFU REEP3 (11722064_at) / Fold change /veh REEP3 (11722064_at) / RFU IGLL1 (11728026_x_at) / Fold change /veh IGLL1 (11728026_x_at): dose or concentration left out as unconfirmed
Settings: ProbeSet 11718977_a_at; LIST B

Nc1ncn([C@@H]2O[C@H](CO)[C@@H](O)[C@H]2O)c(=O)n1 [azacitidine]
RFU, CAPN2: 169.72 RFU
